According to US7732604B2, “Triazolopyrazine derivatives” (Pfizer Inc., priority 2006, dated 2010):

What follows are molecules tested against T1, HGFR (Homo sapiens, UniProt P08581) (assay: HGFR continuous-coupled spectrophotometric assay (tyrosine kinase activity on Met-2 substrate peptide)). Conditions: HGFR 50 nM, Met-2 peptide 0.5 mM, ATP 300 μM, 37° C., absorbance 340 nm; read-out: Ki.
T1 construct: purchased Upstate 14-526
T1 sequence (P08581 974-1390 limits assumed): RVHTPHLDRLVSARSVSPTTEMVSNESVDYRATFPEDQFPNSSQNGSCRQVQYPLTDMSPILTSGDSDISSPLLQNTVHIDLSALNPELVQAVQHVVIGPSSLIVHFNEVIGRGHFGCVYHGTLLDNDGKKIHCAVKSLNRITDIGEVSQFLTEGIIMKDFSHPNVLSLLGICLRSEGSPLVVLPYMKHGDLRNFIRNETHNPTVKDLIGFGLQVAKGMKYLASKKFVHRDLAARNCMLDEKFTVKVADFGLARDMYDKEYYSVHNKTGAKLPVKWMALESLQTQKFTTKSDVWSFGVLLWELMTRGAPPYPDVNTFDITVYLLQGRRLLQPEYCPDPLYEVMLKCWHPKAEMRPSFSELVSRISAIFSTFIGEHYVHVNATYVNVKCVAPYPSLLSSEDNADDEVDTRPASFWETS
Type: biochemical
In the case of Fc1cc2ncccc2cc1Cn1nnc2ncc(NC3CCOC3)nc21 (centres unmarked) [Example 152, 1-[(7-fluoro-quinolin-6-yl)meth-yl]-N-(tetra-hydrofuran-3-yl)-1H-[1,2,3]tri-azolo[4,5-b]pyra-zin-6-amine], the Ki is reported as 1 nM. CCN1CCN(c2cnc3nnn(Cc4ccc5ncccc5c4)c3n2)C(C)C1=O (centres unmarked) [Example 82, 1-ethyl-3-meth-yl-4-[1-(quino-lin-6-yl-methyl)-1H-[1,2,3]tri-azolo[4,5-b]pyra-zin-6-yl]pipe-razin-2-one] was tested, and the Ki was 15 nM. O[C@@H]1CCN(c2cnc3nnn(Cc4ccc5ncccc5c4)c3n2)C[C@H]1O [Example 99, (3R,4R)-1-[1-(quino-lin-6-yl-methyl)-1H-[1,2,3]tri-azolo[4,5-b]pyra-zin-6-yl]pipe-ridine-3,4-diol] gave a Ki of 21 nM. Work on COC(=O)Cn1cc(-c2cnc3nnn(Cc4ccc5ncccc5c4)c3n2)cn1 [Example 66, [4-(3-Quinolin-6-ylmethyl-3H-[1,2,3]triazolo[4,5-b]pyrazin-5-yl)-pyrazol-1-yl]-acetic acid methyl ester] yielded a Ki of 18 nM. NCCNc1cnc2nnn(Cc3ccc4ncccc4c3)c2n1 [Example 137, N-[1-(quinolin-6-yl-methyl)-1H-[1,2,3]tri-azolo[4,5-b]pyra-zin-6-yl]eth-ane-1,2-diamine] gave a Ki of 27 nM. Work on CC(N)c1cnc2nnn(Cc3ccc4ncccc4c3)c2n1 (centres unmarked) [Example 183, 1-(3-Quinolin-6-yl-methyl-3H-[1,2,3]tri-azolo[4,5-b]pyra-zin-5-yl)-ethylamine] yielded a Ki of 837 nM. For CC(O)CNc1cnc2nnn(Cc3ccc4ncccc4c3)c2n1 (centres unmarked) [Example 175, 1-{[1-(quinolin-6-yl-methyl)-1H-[1,2,3]tri-azolo[4,5-b]pyra-zin-6-yl]ami-no}propan-2-ol], the Ki was 8 nM. For O=C1CCN(c2cnc3nnn(Cc4ccc5ncccc5c4)c3n2)CCN1 [Example 79, 1-[1-(quinolin-6-yl-methyl)-1H-[1,2,3]tri-azolo[4,5-b]py-razin-6-yl]-14-di-azepan-5-one], the Ki was 11 nM. CN(Cc1noc(C2CC2)n1)c1cnc2nnn(Cc3ccc4ncccc4c3)c2n1 [Example 95, N-[(5-cyclo-propyl-1,2,4-oxa-diazol-3-yl)meth-yl]-N-methyl-1-(quino-lin-6-yl-methyl)-1H-[1,2,3]tri-azolo[4,5-b]pyra-zin-6-amine] showed a Ki of 20 nM. N#CC1CCN(C2CCN(c3cnc4nnn(Cc5ccc6ncccc6c5)c4n3)C2)CC1 (stereo in doubt) [Example 148, 1-{(3R)-1-[1-(quino-lin-6-yl-methyl)-1H-[1,2,3]tri-azolo[4,5-b]pyra-zin-6-yl]pyrro-lidin-3-yl}pipe-ridine-4-carbo-nitrile] gave a Ki of 30 nM. Molecule CC(C)(CO)Nc1cnc2nnn(Cc3ccc4ncccc4c3)c2n1 [Example 139, 2-methyl-2-{[1-(quino-lin-6-yl-methyl)-1H-[1,2,3]tri-azolo[4,5-b]pyra-zin-6-yl]ami-no}propan-1-ol] has a Ki of 21 nM. CN(C)[C@@H]1CCN(c2cnc3nnn(Cc4ccc5ncccc5c4)c3n2)C1 [Example 30, (R)-N,N-dimethyl-1-(3-(quinolin-6-ylmethyl)-3H-[1,2,3]triazolo[4,5-b]pyrazin-5-yl)pyrrolidin-3-amine] was tested, and the Ki was 8 nM. In the case of CCOC(=O)c1cnn(-c2cnc3nnn(Cc4ccc5ncccc5c4)c3n2)c1 [Example 14, ethyl 1-(3-(quinolin-6-ylmethyl)-3H-[1,2,3]triazolo[4,5-b]pyrazin-5-yl)-1H-pyrazole-4-carboxylate], the Ki is reported as 40 nM. For CC(O)CNc1cnc2nnn(Cc3ccc4ncccc4c3)c2n1 (centres unmarked) [Example 113, 1-{[1-(quinolin-6-yl-methyl)-1H-[1,2,3]tri-azolo[4,5-b]pyra-zin-6-yl]ami-no}propan-2-ol], the Ki was 8 nM. O=c1[nH]cccc1CNc1cnc2nnn(Cc3ccc4ncccc4c3)c2n1 [Example 115, 3-({[1-(quinolin-6-yl-methyl)-1H-[1,2,3]tri-azolo[4,5-b]pyra-zin-6-yl]ami-no}meth-yl)pyridin-2(1H)-one] gave a Ki of 12 nM. O=C(c1ccc(-c2cnc3nnn(Cc4ccc5ncccc5c4)c3n2)cc1)N1CCOCC1 [Example 17, morpholino(4-(3-(quinolin-6-ylmethyl)-3H-[1,2,3]triazolo[4,5-b]pyrazin-5-yl)phenyl)-methanone] was tested, and the Ki was 46 nM. Molecule CNC1CCN(c2cnc3nnn(Cc4ccc5ncccc5c4)c3n2)CC1 [Example 135, N-methyl-1-[1-(quino-lin-6-yl-methyl)-1H-[1,2,3]tri-azolo[4,5-b]pyra-zin-6-yl]pipe-ridin-4-amine] has a Ki of 35 nM. In the case of OC1CCN(C2CCN(c3cnc4nnn(Cc5ccc6ncccc6c5)c4n3)C2)CC1 (stereo in doubt) [Example 170, 1-[(3R)-1-[1-(quino-lin-6-yl-methyl)-1H-[1,2,3]tri-azolo[4,5-b]pyra-zin-6-yl]pyrro-lidin-3-yl}pipe-ridin-4-ol], the Ki is reported as 21 nM. Work on NCc1ccc(-c2cnc3nnn(Cc4ccc5ncccc5c4)c3n2)cc1 [Example 38, (4-(3-(quinolin-6-ylmethyl)-3H-[1,2,3]triazolo[4,5-b]pyrazin-5-yl)phenyl)methanamine] yielded a Ki of 3 nM. C[C@H]1COCCN1c1cnc2nnn(Cc3ccc4ncccc4c3)c2n1 [Example 199, 6-({6-[(3S)-3-methyl-morpholin-4-yl]-1H-[123]tri-azolo[45-b]pyra-zin-1-yl}methyl)quinoline] was tested, and the Ki was 138 nM. CC1C(=O)N(C)CCN1c1cnc2nnn(Cc3ccc4ncccc4c3)c2n1 (centres unmarked) [Example 88, 13-dimethyl-4-[1-(quino-lin-6-yl-methyl)-1H-[1,2,3]tri-azolo[4,5-b]pyra-zin-6-yl]pipe-razin-2-one] gave a Ki of 50 nM. Molecule CN(C)C(C(N)=O)C1CCN(c2cnc3nnn(Cc4ccc5ncccc5c4)c3n2)CC1 (centres unmarked) [Example 109, 2-(dimethyl-amino)-2-{1-[1-(quino-lin-6-yl-methyl)-1H-[1,2,3]tri-azolo[4,5-b]pyra-zin-6-yl]pipe-ridin-4-yl}acetamide] has a Ki of 22 nM. Molecule FC(F)c1nnc2n1CCN(c1cnc3nnn(Cc4ccc5ncccc5c4)c3n1)C2 [Example 108, 6-({6-[3-(di-fluoromethyl)-5,6-di-hydro[1,2,4]tri-azolo[4,3-a]pyrazin-7(8H)-yl]-1H-[1,2,3]tri-azolo[4,5-b]pyra-zin-1-yl}meth-yl)quinoline] has a Ki of 26 nM. For CC(c1ccc2c(c1)OCCO2)n1nnc2ncc(N3CC[C@@H](N)C3)nc21 (stereo partly drawn) [Example 181, (R)-1-{3-[1-(2,3-Dihydro-benzo[1,4]dioxin-6-yl)-eth-yl]-3H-[1,2,3]triaz-olo[4,5-b]pyra-zin-5-yl}-pyrro-lidin-3-ylamine], the Ki was 177 nM. Work on OC[C@@H]1CCCN1c1cnc2nnn(Cc3ccc4ncccc4c3)c2n1 [Example 76, {(2S)-1-[1-(quino-lin-6-yl-methyl)-1H-[1,2,3]tri-azolo[4,5-b]pyra-zin-6-yl]pyr-rolidin-2-yl}methanol] yielded a Ki of 65 nM. In the case of O=C(O)c1ccc(-c2cnc3nnn(Cc4ccc5ncccc5c4)c3n2)cc1Cl [Example 39, 2-chloro-4-(3-(quinolin-6-ylmethyl)-3H-[1,2,3]triazolo[4,5-b]pyrazin-5-yl)benzoic acid], the Ki is reported as 21 nM. In the case of Cc1cn(-c2cnc3nnn(Cc4ccc5ncccc5c4)c3n2)cn1 [Example 16, 6-((6-(4-methyl-1H-imidazol-1-yl)-1H-[1,2,3]triazolo[4,5-b]pyrazin-1-yl)methyl)-quinoline], the Ki is reported as 3 nM. For OC[C@@H]1C[C@H]1CNc1cnc2nnn(Cc3ccc4ncccc4c3)c2n1 [Example 127, [(1R,2R)-2-({[1-(quino-lin-6-yl-methyl)-1H-[1,2,3]tri-azolo[4,5-b]pyra-zin-6-yl]ami-no}methyl)cyclo-propyl]methanol], the Ki was 40 nM. In the case of COc1cccc(-c2cnc3nnn(Cc4ccc5ncccc5c4)c3n2)c1 [Example 20, 6-((6-(3-methoxyphenyl)-1H-[1,2,3]triazolo[4,5-b]pyrazin-1-yl)methyl)-quinoline], the Ki is reported as 3 nM. CC(C)Nc1cnc2nnn(Cc3ccc4ncccc4c3)c2n1 [Example 166, N-isopropyl-1-(quino-lin-6-yl-methyl)-1H-[1,2,3]tri-azolo[4,5-b]pyra-zin-6-amine] gave a Ki of 4 nM. OC[C@@H]1CC=CC[C@@H]1Nc1cnc2nnn(Cc3ccc4ncccc4c3)c2n1 [Example 119, [(1S,6R)-6-{[1-(quino-lin-6-yl-methyl)-1H-[1,2,3]tri-azolo[4,5-b]pyra-zin-6-yl]ami-no}cyclohex-3-en-1-yl]meth-anol] gave a Ki of 30 nM. CC(c1ccc2ncccc2c1)n1nnc2ncc(Br)nc21 (stereo in doubt) [Example 212, 6-[(S)-1-(6-Bromo-[1,2,3]triazolo [4,5-b]pyrazin-1-yl)-ethyl]-quinoline] showed a Ki of 42 nM. c1cnc2ccc(Cn3nnc4ncc(-n5cccn5)nc43)cc2c1 [Example 22, 6-((6-(1H-pyrazol-1-yl)-1H-[1,2,3]triazolo[4,5-b]pyrazin-1-yl)methyl)-quinoline] showed a Ki of 12 nM. Molecule CC1(O)CCN(c2cnc3nnn(Cc4ccc5ncccc5c4)c3n2)CC1 [Example 101, 4-methyl-1-[1-(quino-lin-6-yl-methyl)-1H-[1,2,3]tri-azolo[4,5-b]pyra-zin-6-yl]piperidin-4-ol] has a Ki of 23 nM. CNC(=O)c1cccc(-c2cnc3nnn(Cc4ccc5ncccc5c4)c3n2)c1 [Example 18, N-methyl-3-(3-(quinolin-6-ylmethyl)-3H-[1,2,3]triazolo[4,5-b]pyrazin-5-yl)benzamide] showed a Ki of 5 nM. c1cnc2ccc(Cn3nnc4ncc(NC5CCOC5)nc43)cc2c1 (centres unmarked) [Example 146, 1-(quinolin-6-yl-methyl)-N-(tetra-hydrofuran-3-yl)-1H-[1,2,3]triazolo[4,5-b]pyra-zin-6-amine] showed a Ki of 7 nM. Work on OCC1CCCN1c1cnc2nnn(Cc3ccc4ncccc4c3)c2n1 (centres unmarked) [Example 103, {1-[1-(quinolin-6-yl-methyl)-1H-[1,2,3]tri-azolo[4,5-b]pyra-zin-6-yl]pyrro-lidin-2-yl}methanol] yielded a Ki of 39 nM. Work on c1cnc2ccc(Cn3nnc4ncc(N5CCc6[nH]ncc6C5)nc43)cc2c1 [Example 98, 6-{[6-(1,4,6,7-tetra-hydro-5H-pyra-zolo[4,3-c]pyri-din-5-yl)-1H-[1,2,3]tri-azolo[4,5-b]pyra-zin-1-yl]meth-yl}quinoline] yielded a Ki of 13 nM.
